The target of assay [1] is T1, Furin (108-574-Tev-Flag-His) enzyme (Homo sapiens, UniProt P09958).
T1 construct: Furin (108-574-Tev-Flag-His) enzyme was expressed and purified from CHO cells; TEV cleavage site (C); FLAG (C); His (C); made in house; host or cells: CHO cells
As to the kind of experiment: Furin enzyme assay. The class given is biochemical. On the procedure: Reactions were performed in black 384-well polystyrene low volume plates (Greiner). Furin (108-574-Tev-Flag-His) enzyme was expressed and purified from CHO cells. Compounds of the invention were dissolved in DMSO (1.0 mM) and serially diluted 1 to 3 with DMSO through eleven dilutions to provide a final compound concentration range from 0.00017 to 10 μM. 0.05 μL of each concentration was transferred to the corresponding well of an assay plate, and then 5 μL of 40 pM furin enzyme in assay buffer (100 mM HEPES pH7.5, 1 mM CaCl2 and 0.005% Triton X-100) was added using a Multidrop Combi (Thermo) to the compound plates, and mixed by inversion. […] The plates were centrifuged at 500×g for 1 minute and incubated at room temperature for two hours. Enzyme inhibition is then quantified using an Envision instrument (PerkinElmer).
Data were analyzed using AbaseXE 7.3, utilizing a four-parameter curve fit equation. The following values were used to define limits and/or constraints for each of the four parameters: • Minimum—limit −10 to 10 • Maximum—90 to 110 • Slope—limit 0.5 to 2.0 • pXC50 confidence interval—10
Raw counts obtained from the respective plate reader (Perkin Elmer) were captured for data analysis. Curves were generated using the equation: Y=A+[(B−A)/(1+(10^C/x)^D)] • where: A=minimum response • B=maximum response • C=log 10*XC50 • D=slope factor • x=log 10 compound concentration [M]
The results were recorded as pXC50 values (−C in the above equation)

Assay [2] concerns the target T2, furin (endogenous protease) in U20S cells (Homo sapiens, UniProt P09958).
T2 construct: the endogenous protease cleaves GFP; endogenous in cells; host or cells: U2OS cells transduced with a BacMam reporter
As to the kind of experiment: Furin cell-based assay (image-based, Golgi-targeted GFP with BMP10 furin/PCSK cleavage site).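 Further: Read-out is mean GFP fluorescence of Golgi puncta per cell by high-content imaging, retained when furin inhibited, over an eleven-point 0.00017–10 µM series, four-parameter fit.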 The following applies: 24-hour incubation, read-out: furin golgi cell pXC50 (converted).

SMILES strings stand for the structures.

Data on 19 compounds can be found in patent US11773078B2, “Furin inhibitors” (Glaxosmithkline Intellectual Property Development Limited, priority 2018, dated 2023).

T1 sequence (P09958 108-574): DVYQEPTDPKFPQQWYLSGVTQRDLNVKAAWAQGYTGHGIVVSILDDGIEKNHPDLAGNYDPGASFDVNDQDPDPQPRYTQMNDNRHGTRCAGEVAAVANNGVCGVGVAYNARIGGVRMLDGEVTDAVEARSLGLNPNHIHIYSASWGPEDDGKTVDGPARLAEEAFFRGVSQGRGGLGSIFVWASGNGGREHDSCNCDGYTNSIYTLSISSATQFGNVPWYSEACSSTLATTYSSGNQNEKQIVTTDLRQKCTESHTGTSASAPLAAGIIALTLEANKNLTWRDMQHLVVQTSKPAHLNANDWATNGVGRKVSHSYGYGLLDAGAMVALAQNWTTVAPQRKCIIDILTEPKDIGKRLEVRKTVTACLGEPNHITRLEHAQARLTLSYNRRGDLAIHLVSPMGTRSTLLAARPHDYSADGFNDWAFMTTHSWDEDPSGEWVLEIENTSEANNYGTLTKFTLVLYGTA
T2 sequence (P09958 108-794): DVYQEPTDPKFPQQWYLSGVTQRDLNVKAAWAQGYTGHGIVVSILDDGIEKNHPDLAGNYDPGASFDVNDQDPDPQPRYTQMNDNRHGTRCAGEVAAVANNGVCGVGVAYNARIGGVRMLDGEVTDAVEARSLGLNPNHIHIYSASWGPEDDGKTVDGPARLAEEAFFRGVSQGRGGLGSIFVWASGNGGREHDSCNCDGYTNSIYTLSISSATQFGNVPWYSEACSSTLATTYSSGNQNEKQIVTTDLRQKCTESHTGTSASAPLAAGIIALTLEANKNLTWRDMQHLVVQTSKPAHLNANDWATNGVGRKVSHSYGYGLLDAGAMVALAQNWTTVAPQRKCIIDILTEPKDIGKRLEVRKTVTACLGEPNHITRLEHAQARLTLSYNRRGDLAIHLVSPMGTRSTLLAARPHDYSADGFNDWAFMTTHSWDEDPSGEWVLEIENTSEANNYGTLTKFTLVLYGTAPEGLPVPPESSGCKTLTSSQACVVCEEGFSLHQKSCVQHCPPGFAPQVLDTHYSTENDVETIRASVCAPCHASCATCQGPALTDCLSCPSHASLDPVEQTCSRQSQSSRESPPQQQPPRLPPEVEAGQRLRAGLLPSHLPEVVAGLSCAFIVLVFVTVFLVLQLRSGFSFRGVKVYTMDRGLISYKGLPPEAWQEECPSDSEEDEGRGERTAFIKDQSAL

Consider `CNC(=O)NCC1CCN(Cc2cc(Oc3cnc(N4CCN(CCC(C)[S+](C)[O-])CC4)nc3)nc(-c3cc(Cl)cc(Cl)c3)c2)CC1` (centres unmarked) [Example 17, 1-((1-((2-(3,5-dichlorophenyl)-6-((2-(4-(3-(methylsulfinyl)butyl)piperazin-1-yl)pyrimidin-5-yl)oxy)pyridin-4-yl)methyl)piperidin-4-yl)methyl)-3-methylurea], for which the IC50 in assay [1] (read-out: furin enzyme pIC50 (converted)) was 0.0316 nM. In assay [2], the EC50 was 2 nM.

Turning to `CNC(=O)NCC1CCN(Cc2cc(Oc3cnc(N4CCN(C(C)CCS(C)(=O)=O)CC4)nc3)nc(-c3cc(Cl)cc(Cl)c3)c2)CC1` (centres unmarked) [Example 18, 1-((1-((2-(3,5-dichlorophenyl)-6-((2-(4-(4-(methylsulfonyl)butan-2-yl)piperazin-1-yl)pyrimidin-5-yl)oxy)pyridin-4-yl)methyl)piperidin-4-yl)methyl)-3-methylurea], the “furin enzyme pIC50” value in assay [1] is given as 10.7. The EC50 in assay [2] was 0.501 nM.

Turning to `CC(=O)NCC1CCN(Cc2cc(Oc3cnc(N4CCN(C(C)CCS(C)(=O)=O)CC4)nc3)nc(-c3cc(Cl)cc(Cl)c3)c2)CC1` (centres unmarked) [Example 19, N-((1-((2-(3,5-dichlorophenyl)-6-((2-(4-(4-(methylsulfonyl)butan-2-yl)piperazin-1-yl)pyrimidin-5-yl)oxy)pyridin-4-yl)methyl)piperidin-4-yl)methyl)acetamide], in assay [1], the “furin enzyme pIC50” value is reported as 10.2. In assay [2], the EC50 is 0.398 nM.

`CNC(=O)NCC1CCN(Cc2cc(Oc3cnc(N4CCN(C(C)CCO)CC4)nc3)nc(-c3cc(Cl)cc(Cl)c3)c2)CC1` (centres unmarked) [Example 20, 1-((1-((2-(3,5-dichlorophenyl)-6-((2-(4-(4-hydroxybutan-2-yl)piperazin-1-yl)pyrimidin-5-yl)oxy)pyridin-4-yl)methyl)piperidin-4-yl)methyl)-3-methylurea]: in assay [1], the “furin enzyme pIC50” value was 9.6. The EC50 in assay [2] is 1 nM.

With `CC(CO)N1CCN(c2ncc(Oc3cc(CN4CCC(CC(=O)O)CC4)cc(-c4cc(Cl)cc(Cl)c4)n3)cn2)CC1` (centres unmarked) [Example 21, 2-(1-((2-(3,5-dichlorophenyl)-6-((2-(4-(1-hydroxypropan-2-yl)piperazin-1-yl)pyrimidin-5-yl)oxy)pyridin-4-yl)methyl)piperidin-4-yl)acetic acid], the “furin enzyme pIC50” value in assay [1] was determined as 9.9. Also, the EC50 in assay [2] was 6.31 nM.

Consider `O=C(O)CC1CCN(Cc2cc(Oc3cnc(N4CCN(C5CC(O)C5)CC4)nc3)nc(-c3cc(Cl)cc(Cl)c3)c2)CC1` (centres unmarked) [Example 22, 2-(1-((2-(3,5-dichlorophenyl)-6-((2-(4-(3-hydroxycyclobutyl)piperazin-1-yl)pyrimidin-5-yl)oxy)pyridin-4-yl)methyl)piperidin-4-yl)acetic acid], for which, in assay [1], the “furin enzyme pIC50” value was 9.5. The EC50 in assay [2] is 10 nM.

As to `O=C(O)CC1CCN(Cc2cc(Oc3cnc(N4CCN(C(CO)CO)CC4)nc3)nc(-c3cc(Cl)cc(Cl)c3)c2)CC1` [Example 23, 2-(1-((2-(3,5-dichlorophenyl)-6-((2-(4-(1,3-dihydroxypropan-2-yl)piperazin-1-yl)pyrimidin-5-yl)oxy)pyridin-4-yl)methyl)piperidin-4-yl)acetic acid], the “furin enzyme pIC50” value in assay [1] turned out to be 8.3. Besides, the EC50 in assay [2] was 15.8 nM.

For `C[C@]1(O)C[C@@H](N2CCN(c3ncc(Oc4cc(CN5CCC(CC(=O)O)CC5)cc(-c5cc(Cl)cc(Cl)c5)n4)cn3)CC2)C1` [Example 24, 2-(1-((2-(3,5-dichlorophenyl)-6-((2-(4-((1s,3s)-3-hydroxy-3-methylcyclobutyl)piperazin-1-yl)pyrimidin-5-yl)oxy)pyridin-4-yl)methyl)piperidin-4-yl)acetic acid], in assay [1], the “furin enzyme pIC50” value is recorded as 8.6. Moreover, the EC50 in assay [2] was 12.6 nM.

Consider `C[C@]1(O)C[C@H](N2CCN(c3ncc(Oc4cc(CN5CCC(CC(=O)O)CC5)cc(-c5cc(Cl)cc(Cl)c5)n4)cn3)CC2)C1` [Example 25, 2-(1-((2-(3,5-dichlorophenyl)-6-((2-(4-((1r,3r)-3-hydroxy-3-methylcyclobutyl)piperazin-1-yl)pyrimidin-5-yl)oxy)pyridin-4-yl)methyl)piperidin-4-yl)acetic acid], for which, in assay [1], the “furin enzyme pIC50” value is 8.2. The EC50 in assay [2] is 12.6 nM.

On to `CC(=O)NCC1CCN(Cc2cc(Oc3ccc(N4CCN([C@H]5C[C@H](NS(C)(=O)=O)C5)CC4)nc3)nc(-c3cc(Cl)cc(Cl)c3)c2)CC1` [Example 26, N-((1-((2-(3,5-Dichlorophenyl)-6-((6-(4-((trans)-3-(methylsulfonamido)cyclobutyl)piperazin-1-yl)pyridin-3-yl)oxy)pyridin-4-yl)methyl)piperidin-4-yl)methyl)acetamide], for which the “furin enzyme pIC50” value in assay [1] was determined as 9.9. Further, the EC50 in assay [2] was 1.58 nM.

Take `CC(=O)NCC1CCN(Cc2cc(Oc3ccc(N4CCN([C@H]5C[C@@H](NS(C)(=O)=O)C5)CC4)nc3)nc(-c3cc(Cl)cc(Cl)c3)c2)CC1` [Example 27, N-((1-((2-(3,5-Dichlorophenyl)-6-((6-(4-((cis)-3-(methylsulfonamido)cyclobutyl)piperazin-1-yl)pyridin-3-yl)oxy)pyridin-4-yl)methyl)piperidin-4-yl)methyl)acetamide]: the “furin enzyme pIC50” value in assay [1] came out at 9.6. Also, the EC50 in assay [2] was 3.16 nM.

Turning to `CC(=O)NCC1CCN(Cc2cc(Oc3ccc(N4CCN(CCN)CC4)nc3)nc(-c3cc(Cl)cc(Cl)c3)c2)CC1` [Example 28, N-((1-((2-((6-(4-(2-Aminoethyl)piperazin-1-yl)pyridin-3-yl)oxy)-6-(3,5-dichlorophenyl)pyridin-4-yl)methyl)piperidin-4-yl)methyl)acetamide], in assay [1], the “furin enzyme pIC50” value is listed as 9. Moreover, in assay [2], the EC50 is 2 nM.

As to `CC(=O)NCC1CCN(Cc2cc(Oc3ccc(N4CCN(CC(O)CCO)CC4)nc3)nc(-c3cc(Cl)cc(Cl)c3)c2)CC1` (centres unmarked) [Example 29, N-((1-((2-(3,5-Dichlorophenyl)-6-((6-(4-(2,4-dihydroxybutyl)piperazin-1-yl)pyridin-3-yl)oxy)pyridin-4-yl)methyl)piperidin-4-yl)methyl)acetamide], the “furin enzyme pIC50” value in assay [1] is reported as 9. Moreover, the EC50 in assay [2] was less than 0.794 nM.

Regarding `CC(=O)NCC1CCN(Cc2cc(Oc3ccc(N4CCN(CCP(=O)(O)O)CC4)nc3)nc(-c3cc(Cl)cc(Cl)c3)c2)CC1` [Example 30, (2-(4-(5-((4-((4-(Acetamidomethyl)piperidin-1-yl)methyl)-6-(3,5-dichlorophenyl)pyridin-2-yl)oxy)pyridin-2-yl)piperazin-1-yl)ethyl)phosphonic acid], the “furin enzyme pIC50” value in assay [1] is reported as 9.1. In addition, the EC50 in assay [2] is 501 nM.

On to `CC(=O)NCC1CCN(Cc2cc(Oc3ccc(N4CCN(CCOC(N)=O)CC4)nc3)nc(-c3cc(Cl)cc(Cl)c3)c2)CC1` [Example 31, 2-(4-(5-((4-((4-(Acetamidomethyl)piperidin-1-yl)methyl)-6-(3,5-dichlorophenyl)pyridin-2-yl)oxy)pyridin-2-yl)piperazin-1-yl)ethyl carbamate], for which the “furin enzyme pIC50” value in assay [1] turned out to be 9.1. Besides, the EC50 in assay [2] was 6.31 nM.

With `CC(=O)NCC1CCN(Cc2cc(Oc3ccc(N4CCN(CCN(C)S(C)(=O)=O)CC4)nc3)nc(-c3cc(Cl)cc(Cl)c3)c2)CC1` [Example 32, N-((1-((2-(3,5-dichlorophenyl)-6-((6-(4-(2-(N-methylmethylsulfonamido)ethyl)piperazin-1-yl)pyridin-3-yl)oxy)pyridin-4-yl)methyl)piperidin-4-yl)methyl)acetamide], in assay [1], the “furin enzyme pIC50” value is given as 8.7. Moreover, the EC50 in assay [2] was 10 nM.

Take `CC(=O)NCC1CCN(Cc2cc(Oc3ccc(N4CCN(C(=O)CCC(=O)O)CC4)nc3)nc(-c3cc(Cl)cc(Cl)c3)c2)CC1` [Example 33, 4-(4-(5-((4-((4-(Acetamidomethyl)piperidin-1-yl)methyl)-6-(3,5-dichlorophenyl)pyridin-2-yl)oxy)pyridin-2-yl)piperazin-1-yl)-4-oxobutanoic acid]: in assay [1], the “furin enzyme pIC50” value is recorded as 8.5. In addition, the EC50 in assay [2] was 39.8 nM.

Take `CC(=O)NCC1CCN(Cc2cc(Oc3ccc(N4CCN(CC5(CO)CC5)CC4)nc3)nc(-c3cc(Cl)cc(Cl)c3)c2)CC1` [Example 34, N-((1-((2-(3,5-Dichlorophenyl)-6-((6-(4-((1-(hydroxymethyl)cyclopropyl)methyl)piperazin-1-yl)pyridin-3-yl)oxy)pyridin-4-yl)methyl)piperidin-4-yl)methyl)acetamide]: the “furin enzyme pIC50” value in assay [1] is recorded as 9.4. In assay [2], the EC50 is 5.01 nM.

Turning to `CC(=O)NCC1CCN(Cc2cc(Oc3ccc(N4CCN(CC5(O)CC5)CC4)nc3)nc(-c3cc(Cl)cc(Cl)c3)c2)CC1` [Example 35, N-((1-((2-(3,5-Dichlorophenyl)-6-((6-(4-((1-hydroxycyclopropyl)methyl)piperazin-1-yl)pyridin-3-yl)oxy)pyridin-4-yl)methyl)piperidin-4-yl)methyl)acetamide], the “furin enzyme pIC50” value in assay [1] was determined as 8.8. Moreover, the EC50 in assay [2] was 3.16 nM.
